Data reported in patent US20250340561A1, “QUINAZOLINE COMPOUND FOR INDUCING DEGRADATION OF G12D MUTANT KRAS PROTEIN” (Astellas Pharma Inc., priority 2021, published 2025).
Where a name gives a salt, the structure may show the parent alone.

target: T1, KRAS G12D (Homo sapiens, UniProt P01116, G12D); assay: Test Example 1-1: KRAS degradation action in AsPC-1, sandwich ELISA; type: cell-based; settings: AsPC-1 cells, 24 hours treatment, corrected with β-actin, 0% = 10 μM Example No. 7
T1 construct: host or cells: AsPC-1 human pancreatic cancer cells
T1 sequence (P01116 1-188 isoform P01116-2 G12D): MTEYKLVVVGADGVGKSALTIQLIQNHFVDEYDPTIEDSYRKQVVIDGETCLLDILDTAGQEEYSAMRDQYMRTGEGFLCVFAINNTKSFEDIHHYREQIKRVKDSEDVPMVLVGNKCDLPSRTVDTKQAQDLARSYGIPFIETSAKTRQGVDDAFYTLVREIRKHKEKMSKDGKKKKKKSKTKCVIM
Protocol: Test Example 1-1: Evaluation of KRAS Degradation Action on Human G12D Mutant KRAS-Positive Pancreatic Cancer Line AsPC-1
The KRAS degradation action of test compounds was evaluated by measuring the expression levels of KRAS G12D by a sandwich ELISA method.
AsPC-1 cells (ATCC, CRL-1682) were seeded at 90 μL per well on a 96-well plate (from IWAKI) to give 1.8×10^4 cells per well. As for the cell culture conditions, RPMI 1640 medium (from Merck) containing 10% fetal bovine serum (from Cytiva) was used in the presence of 5% CO2 at 37° C.
The next day, the test compounds (10 points having final concentrations in the range of 10 μM to 0.3 nM) were diluted 100-fold with a fresh medium and were added at 10 μL per well. The same treatments were each applied to 4 wells. In addition, in production of the sandwich ELISA plate, a capture antibody (anti-KRAS antibody, from LS Bio) mixed in Phosphate Buffered Saline [PBS; from FUJIFILM Wako Pure Chemical Corporation] in 1,000-fold dilution was added at 20 μL per well to a Maxisorp 384-well plate (from Thermo Scientific), and after attaching a seal, the plate was allowed to stand at 4° C. overnight.
After 24 hours of the test compound treatment, the culture supernatant was discarded. Immediately, a cytolytic solution (produced by adding, to a RIPA buffer [from Thermo Scientific], a Halt Protease Phosphatese Inhibitor Cocktail [from Thermo Scientific] and Benzonase Nuclease [from Merck] in amounts of 1/100 and 1/500, respectively) was added at 50 μL per well, and the cells were lysed. Then, equally treated 4 wells were combined to prepare a cell lysate sample of 200 μL in total. For KRAS detection, the Maxisorp 384-well plate which had been treated with the capture antibody since the previous day was washed (twice with 25 μL each) with 0.05% Tween-20-containing PBS (from Thermo Scientific; 20×PBS Tween-20 was diluted 20-fold with ion exchange water and used) and was treated with a blocking solution (Intercept Blocking Buffer; from LI-COR Biosciences) for 60 minutes, and then, the cell lysate samples were added at 20 μL per well. For 3-actin detection, the cell lysate samples were added as they were at 20 μL per well to the Maxisorp 384-well plate, and after attaching a seal, the plate was allowed to stand at 4° C. overnight.
The next day, after washing the KRAS detection plate with 0.05% Tween-20-containing PBS, an anti-Ras (G12D mutant specific) antibody (from Cell Signaling Technology) diluted 1,000-fold with a blocking solution was added at 20 μL per well as a detection antibody, and the plate was allowed to stand for 5 hours at room temperature. Then, the plate was centrifuged to remove the supernatant (using a centrifugal dehydrator machine, the supernatant was removed by the same method hereinafter) and was washed with 0.05% Tween-20-containing PBS. Then, an anti-Rabbit IgG […] antibody (from Cell Signaling Technology) diluted 1,000-fold with a blocking solution was added at 20 μL per well as a secondary antibody, and the plate was allowed to stand for 1 hour at room temperature. The plate was centrifuged to remove the supernatant and was washed with 0.05% Tween-20-containing PBS. Then, a BM chemiluminescent ELISA substrate (from Merck) was added at 20 μL per well, and the amounts of luminescence were measured with 2103 EnVision (from PerkinElmer). In addition, the 3-actin detection plate was washed with 0.05% Tween-20-containing PBS and was treated with a blocking solution for 60 minutes, and then, an anti-β-actin antibody (from Abcam) diluted 1,000-fold with a blocking solution was added at 20 μL per well as a detection antibody. The plate was allowed to stand for 5 hours at room temperature. Then, the plate was centrifuged to remove the supernatant and washed with 0.05% Tween-20-containing PBS, and then, an anti-Mouse IgG RP-linked antibody (from Cell Signaling Technology) diluted 1,000-fold with a blocking solution was added at 20 μL per well as a secondary antibody. […]

Cc1ncsc1-c1ccc([C@H](C)NC(=O)[C@@H]2C[C@@H](O)CN2C(=O)[C@H](C(C)C)n2cc(-c3ccc(COc4c(-c5c(C)c(F)cc6[nH]ncc56)c(C5CC5)cc5c(N6C[C@@H]7C[C@H]6CN7)nc(OC6CCOCC6)nc45)cc3)nn2)cc1 [Example 9] and Cc1ncsc1-c1ccc([C@H](CF)NC(=O)[C@@H]2C[C@@H](O)CN2C(=O)[C@H](C(C)C)n2cc(-c3ccc(COc4c(-c5c(C)c(F)cc6[nH]ncc56)c(C5CC5)cc5c(N6C[C@@H]7C[C@H]6CN7)nc(OC6CCOCC6)nc45)cc3)nn2)cc1 [Example 17] are within 1.5-fold of each other in DC50: 77 nM for the first, 92 nM for the second.

Cc1ncsc1-c1ccc([C@H](CO)NC(=O)[C@@H]2C[C@@H](O)CN2C(=O)[C@@H](NC(=O)c2ccc(COc3c(-c4c(C)c(F)cc5[nH]ncc45)c(C4CC4)cc4c(N5C[C@@H]6C[C@H]5CN6)nc(OC5CCOCC5)nc34)cc2)C(C)C)cc1 [Example 3] and Cc1ncsc1-c1ccc(C2(NC(=O)[C@@H]3C[C@@H](O)CN3C(=O)[C@@H](NC(=O)c3ccc(COc4c(-c5c(C)c(F)cc6[nH]ncc56)c(C5CC5)cc5c(N6C[C@@H]7C[C@H]6CN7)nc(OC6CCOCC6)nc45)cc3)C(C)C)CC2)cc1 [Example 1] are within 1.5-fold of each other in DC50: 140 nM for the first, 123 nM for the second.

Going from Cc1c(F)cc2[nH]ncc2c1-c1c(C2CC2)cc2c(N3C[C@@H]4C[C@H]3CN4)nc(OC3CCOCC3)nc2c1OCc1ccc(-c2cn([C@H](C(=O)N3C[C@H](O)C[C@H]3C(=O)N[C@@H](CO)c3ccc(F)cc3)C(C)C)nn2)cc1 [Example 13] to Cc1c(F)cc2[nH]ncc2c1-c1c(C2CC2)cc2c(N3C[C@@H]4C[C@H]3CN4)nc(OC3CCOCC3)nc2c1OCc1ccc(-c2cn([C@H](C(=O)N3C[C@H](O)C[C@H]3C(=O)N[C@@H](CO)c3ccc(N4CCOC4=O)cc3)C(C)C)nn2)cc1 [Example 20, (4R)-1-[(2S)-2-(4-{4-[({6-cyclopropyl-4-[(1S,4S)-2,5-diazabicyclo[2.2.1]heptan-2-yl]-7-(6-fluoro-5-methyl-1H-indazol-4-yl)-2-[(oxan-4-yl)oxy]quinazolin-8-yl}oxy)methyl]phenyl}-1H-1,2,3-triazol-1-yl)-3-methylbutanoyl]-4-hydroxy-N-{(1R)-2-hydroxy-1-[4-(2-oxo-1,3-oxazolidin-3-yl)phenyl]ethyl}-L-prolinamide], the DC50 falls from 151 nM to 100 nM (1.5-fold).

Going from Cc1ncsc1-c1ccc([C@H](CO)NC(=O)[C@@H]2C[C@@H](O)CN2C(=O)C(C(C)C)n2cc(-c3ccc(COc4c(-c5c(C)c(F)cc6[nH]ncc56)c(C5CC5)cc5c(N6C[C@@H]7C[C@H]6CN7)nc(OC6CCOCC6)nc45)cc3)cn2)cc1 (single isomer, unassigned) [Example 11] to Cc1ncsc1-c1ccc([C@H](CO)NC(=O)[C@@H]2C[C@@H](O)CN2C(=O)[C@H](C(C)C)n2cc(-c3ccc(COc4c(-c5c(C)c(F)cc6[nH]ncc56)c(C5CC5)cc5c(N6C[C@@H]7C[C@H]6CN7)nc(O[C@@H]6CCOC6)nc45)cc3)nn2)cc1 [Example 28], the DC50 falls from 178 nM to 45 nM (4-fold).

Cc1ncsc1-c1ccc([C@@H](NC(=O)[C@@H]2C[C@@H](O)CN2C(=O)[C@H](C(C)C)n2cc(-c3ccc(COc4c(-c5c(C)c(F)cc6[nH]ncc56)c(C5CC5)cc5c(N6C[C@@H]7C[C@H]6CN7)nc(OC6CCOCC6)nc45)cc3)nn2)C(F)F)cc1 [Example 16] and Cc1ncsc1-c1ccc([C@H](CN(C)C)NC(=O)[C@@H]2C[C@@H](O)CN2C(=O)[C@H](C(C)C)n2cc(-c3ccc(COc4c(-c5c(C)c(F)cc6[nH]ncc56)c(C5CC5)cc5c(N6C[C@@H]7C[C@H]6CN7)nc(OC6CCOCC6)nc45)cc3)nn2)cc1 [Example 19] are within 1.5-fold of each other in DC50: 188 nM for the first, 139 nM for the second.

First: Cc1ncsc1-c1ccc([C@H](CO)NC(=O)[C@@H]2C[C@@H](O)CN2C(=O)[C@H](C(C)C)n2cc(-c3ccc(COc4c(-c5c(C)c(F)cc6[nH]ncc56)c(C5CC5)cc5c(N6C[C@@H]7C[C@H]6CN7)nc(OC6CCN(C7COC7)CC6)nc45)cc3)nn2)cc1 [Example 24]
Second: Cc1ncsc1-c1ccc([C@H](CO)NC(=O)[C@@H]2C[C@@H](O)CN2C(=O)[C@H](C(C)C)n2cc(-c3ccc(COc4c(-c5c(C)c(F)cc6[nH]ncc56)c(C5CC5)cc5c(N6C[C@@H]7C[C@H]6CN7)nc(OC6COC6)nc45)cc3)nn2)cc1 [Example 27]
The DC50 of the first is 1.9-fold higher: 103 nM for the first, 55 nM for the second.

CCc1ccncc1Oc1nc(N2C[C@@H]3C[C@H]2CN3)c2cc(C3CC3)c(-c3c(C)c(F)cc4[nH]ncc34)c(OCc3ccc(-c4cn([C@H](C(=O)N5C[C@H](O)C[C@H]5C(=O)N[C@@H](CO)c5ccc(-c6scnc6C)cc5)C(C)C)nn4)cc3)c2n1 [Example 25] and Cc1ncsc1-c1ccc([C@H](CO)NC(=O)[C@@H]2C[C@@H](O)CN2C(=O)[C@H](C(C)C)n2cc(-c3ccc(COc4c(-c5c(C)c(F)cc6[nH]ncc56)c(C5CC5)cc5c(N6C[C@@H]7C[C@H]6CN7)nc(O[C@H]6CCOC6)nc45)cc3)nn2)cc1 [Example 29] are within 1.5-fold of each other in DC50: 44 nM for the first, 33 nM for the second.

Going from Cc1ncsc1-c1ccc([C@H](CO)NC(=O)[C@@H]2C[C@@H](O)CN2C(=O)[C@H](C(C)C)N2Cc3cc(COc4c(-c5c(C)c(F)cc6[nH]ncc56)c(C5CC5)cc5c(N6C[C@@H]7C[C@H]6CN7)nc(OC6CCOCC6)nc45)ccc3C2=O)cc1 [Example 4] to Cc1ncsc1-c1ccc(CNC(=O)[C@@H]2C[C@@H](O)CN2C(=O)[C@H](C(C)C)n2cc(-c3ccc(COc4c(-c5c(C)c(F)cc6[nH]ncc56)c(C5CC5)cc5c(N6C[C@@H]7C[C@H]6CN7)nc(OC6CCOCC6)nc45)cc3)nn2)cc1 [Example 10], the DC50 falls from 897 nM to 124 nM (7.2-fold).

Going from Cc1ncsc1-c1ccc([C@H](CO)NC(=O)[C@@H]2C[C@@H](O)CN2C(=O)[C@H](C(C)C)n2cc(-c3ccc(COc4c(-c5cc(O)cc(F)c5C)c(C5CC5)cc5c(N6C[C@@H]7C[C@H]6CN7)nc(OC6CCOCC6)nc45)cc3)nn2)cc1 [Example 15] to Cc1c(F)cc2[nH]ncc2c1-c1c(C2CC2)cc2c(N3C[C@@H]4C[C@H]3CN4)nc(OC3CCOCC3)nc2c1OCc1ccc(-c2cn([C@H](C(=O)N3C[C@H](O)C[C@H]3C(=O)N[C@@H](CO)c3ccc(-c4ccnn4C)cc3)C(C)C)nn2)cc1 [Example 23], the DC50 falls from 95 nM to 34 nM (2.8-fold).

same assay, conditions: AsPC-1 cells, 24 hours treatment, corrected with β-actin, 0% = 10 μM Example No. 7, hydrochloride

Cc1ncsc1-c1ccc([C@H](CO)NC(=O)[C@@H]2C[C@@H](O)CN2C(=O)[C@H](C(C)C)n2cc(-c3ccc(COc4c(-c5c(C)c(F)cc6[nH]ncc56)c(C5CC5)cc5c(N6C[C@@H]7C[C@H]6CN7)nc(OC6CCOCC6)nc45)cc3)nn2)cc1 [Example 7, (4R)-1-[(2S)-2-(4-{4-[({6-cyclopropyl-4-[(1S,4S)-2,5-diazabicyclo[2.2.1]heptan-2-yl]-7-(6-fluoro-5-methyl-1H-indazol-4-yl)-2-[(oxan-4-yl)oxy]quinazolin-8-yl}oxy)methyl]phenyl}-1H-1,2,3-triazol-1-yl)-3-methylbutanoyl]-4-hydroxy-N-{(1R)-2-hydroxy-1-[4-(4-methyl-1,3-thiazol-5-yl)phenyl]ethyl}-L-prolinamide n hydrochloride] showed a DC50 of 46 nM.
